Measured values reported in patent US9422299B2, “Substituted [1,2,4]triazolo[4,3-a]pyrazines as selective NK-3 receptor antagonists” (EUROSCREEN SA, priority 2013, dated 2016).

Experiments:
human NK-3 receptor [1] = target: T1, human NK-3 receptor (Homo sapiens (Human), UniProt P29371); assay: 3H-SB222200 binding competition assay with human NK-3 receptor; settings: read-out: hNK-3 (Ki)
Protocol: The affinity of compounds of the invention for the human NK-3 receptor was determined by measuring the ability of compounds of the invention to competitively and reversibly displace a well-characterized NK-3 radioligand in a concentration-dependent manner.
^3H-SB222200 Binding Competition Assay with Human NK-3 Receptor
Membranes were prepared from Chinese hamster ovary recombinant cells stably expressing the human NK-3 receptor. The membranes were incubated with 5 nM ^3H-SB222200 (ARC) in a HEPES 25 mM/NaCl 0.1M/CaCl2 1 mM/MgCl2 5 mM/BSA 0.5%/Saponin 10 μg/ml buffer at pH 7.4 and various concentrations of compounds of the invention. The amount of ^3H-SB222200 bound to the receptor was determined after filtration by the quantification of membrane associated radioactivity using the TopCount-NXT reader (Packard).

human NK-1 receptor = human NK-1 receptor (Homo sapiens (Human), UniProt P25103); assay: Selectivity assay: [3H] substance P binding, human NK-1; settings: 2 nM [3H] substance P, CHO membranes; read-out: hNK-1 (Ki)
Protocol: Selectivity of the compounds of the invention was determined over the other human NK receptors, namely NK-1 and NK-2 receptors.
The affinity of compounds of the invention for the NK-1 receptor was evaluated in CHO recombinant cells which express the human NK-1 receptor. Membrane suspensions were prepared from these cells. The following radioligand: [^3H] substance P (PerkinElmer Cat#NET111520) was used in this assay. Binding assays were performed in a 50 mM Tris/5 mM MnCl2/150 mM NaCl/0.1% BSA at pH 7.4. Binding assays consisted of 25 μl of membrane suspension (approximately 5 μg of protein/well in a 96 well plate), 50 μl of compound or reference ligand (Substance P) at increasing concentrations (diluted in assay buffer) and 2 nM [^3H] substance P. The plate was incubated 60 min at 25° C. in a water bath and then filtered over GF/C filters (Perkin Elmer, 6005174, presoaked in 0.5% PEI for 2 h at room temperature) with a Filtration unit (Perkin Elmer). The radioactivity retained on the filters was measured by using the TopCount-NXT reader (Packard).

human NK-3 receptor [2] = target: T1, human NK-3 receptor; assay: Aequorin functional assay with human NK-3 receptor (antagonist testing); assay type: cell-based; settings: read-out: Functional assay: Aequorin assay with human NK-3 receptor hNK-3 - AEQ (antagonist IC50)
Protocol: Aequorin Assay with Human NK-3 Receptor
Changes in intracellular calcium levels are a recognized indicator of G protein-coupled receptor activity. The efficacy of compounds of the invention to inhibit NKA-mediated NK-3 receptor activation was assessed by an in vitro Aequorin functional assay. Chinese Hamster Ovary recombinant cells expressing the human NK-3 receptor and a construct that encodes the photoprotein apoaequorin were used for this assay. In the presence of the cofactor coelenterazine, apoaequorin emits a measurable luminescence that is proportional to the amount of intracellular (cytoplasmic) free calcium.
The antagonist activity of compounds of the invention is measured following pre-incubation (3 minutes) of the compound (at various concentrations) with the cells, followed by addition of the reference agonist (NKA) at a final concentration equivalent to the EC80 (3 nM) and recording of emitted light (FDSS 6000 Hamamatsu) over the subsequent 90-second period. The intensity of the emitted light is integrated using the reader software. Compound antagonist activity is measured based on the concentration-dependent inhibition of the luminescence response to the addition of Neurokinin A.

plasma protein = assay: Determination of plasma protein binding (equilibrium dialysis); assay type: in vitro ADME; settings: 4 hours at 37° C.
Excerpt: Determination of Plasma Protein Binding
The pharmacokinetic and pharmacodynamic properties of chemicals/drugs are largely a function of the reversible binding of chemicals to plasma or serum proteins. […] Consequently, the extent of the plasma protein binding (PPB) of a compound influences its action as well as its distribution and elimination.
The determination of plasma protein binding (PPB) of a compound is enabled by equilibrium dialysis, an accepted and standard method for reliable estimation of the non-bound drug fraction in plasma. RED (Rapid Equilibrium Dialysis) device insert is made of two side-by-side chambers separated by an O-ring-sealed vertical cylinder of dialysis membrane (MWCO˜8,000). […] After 4 hours incubation at 37° C. under shaking, an aliquot is removed from each chamber and analyzed by a LC-MS/MS procedure enables the determination of both free and bound drug.
The “free fraction” may be calculated as 100%-% rPPB (i.e. the complementary percentage of that disclosed in Table 4, corresponding to the drug concentration that is unbound and therefore available to engage biological target and elicit pharmacological activity).

hERG channel = hERG channel (Homo sapiens (Human), UniProt Q12809); assay: hERG inhibition assay (manual patch-clamp, HEK 293 cells); assay type: cell-based; settings: 5 minutes of exposure, read-out: CardioSafety (hERG IC50)
Protocol: The human ether-a-go-go related gene (hERG) encodes the inward rectifying voltage gated potassium channel in the heart (IKr) which is involved in cardiac repolarisation. […] IKr current inhibition accounts for the vast majority of known cases of drug-induced QT-prolongation.
Whole-cell currents (acquisition by manual patch-clamp) elicited during a voltage pulse were recorded in baseline conditions and following application of tested compounds (5 minutes of exposure). The concentrations of tested compounds (0.3 μM; 3 μM; 10 μM; 30 μM) reflect a range believed to exceed the concentrations at expected efficacy doses in preclinical models.
The current density recorded were normalized against the baseline conditions and corrected for solvent effect and time-dependent current run-down using experimental design in test compound free conditions.

human NK-2 receptor = human NK-2 receptor (Homo sapiens (Human), UniProt P21452); assay: Selectivity assay: [125I]-Neurokinin A binding, human NK-2; settings: 0.1 nM [125I]-Neurokinin A, CHO membranes; read-out: hNK-2 (Ki)
Protocol: The affinity of compounds of the invention for the NK-2 receptor was evaluated in CHO recombinant cells which express the human NK-2 receptor. Membrane suspensions were prepared from these cells. […] Binding assays were performed in a 25 mM HEPES/1 mM CaCl2/5 mM MgCl2/0.5% BSA/10 μg/ml saponin, at pH 7.4. […] The radioactivity retained on the filters was measured by using the TopCount-NXT reader (Packard).

T1 sequence (P29371 whole entry): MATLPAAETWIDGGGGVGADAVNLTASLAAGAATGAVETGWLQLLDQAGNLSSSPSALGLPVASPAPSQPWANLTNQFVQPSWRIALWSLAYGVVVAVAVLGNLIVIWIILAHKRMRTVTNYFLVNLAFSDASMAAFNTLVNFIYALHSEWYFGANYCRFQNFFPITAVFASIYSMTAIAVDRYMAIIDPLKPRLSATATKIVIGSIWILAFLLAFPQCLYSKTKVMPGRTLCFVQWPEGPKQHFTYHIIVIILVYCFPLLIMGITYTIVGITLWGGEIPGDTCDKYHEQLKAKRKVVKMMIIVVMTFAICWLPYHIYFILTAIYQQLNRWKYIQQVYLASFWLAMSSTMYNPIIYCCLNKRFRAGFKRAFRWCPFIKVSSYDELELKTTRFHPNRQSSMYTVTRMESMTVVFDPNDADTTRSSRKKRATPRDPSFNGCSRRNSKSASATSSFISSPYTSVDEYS
Chain of human NK-1 receptor (P25103 whole entry): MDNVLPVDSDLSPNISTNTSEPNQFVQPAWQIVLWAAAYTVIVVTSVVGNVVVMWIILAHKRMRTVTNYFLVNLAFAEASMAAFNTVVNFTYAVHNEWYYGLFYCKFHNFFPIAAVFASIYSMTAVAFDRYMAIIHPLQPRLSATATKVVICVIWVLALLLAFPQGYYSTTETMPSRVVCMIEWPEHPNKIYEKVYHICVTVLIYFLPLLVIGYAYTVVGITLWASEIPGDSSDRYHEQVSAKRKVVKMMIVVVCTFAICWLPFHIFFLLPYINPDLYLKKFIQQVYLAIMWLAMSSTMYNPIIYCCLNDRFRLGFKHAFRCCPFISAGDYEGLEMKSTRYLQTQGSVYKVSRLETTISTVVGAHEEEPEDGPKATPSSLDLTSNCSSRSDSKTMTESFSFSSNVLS
Chain of human NK-2 receptor (P21452 whole entry): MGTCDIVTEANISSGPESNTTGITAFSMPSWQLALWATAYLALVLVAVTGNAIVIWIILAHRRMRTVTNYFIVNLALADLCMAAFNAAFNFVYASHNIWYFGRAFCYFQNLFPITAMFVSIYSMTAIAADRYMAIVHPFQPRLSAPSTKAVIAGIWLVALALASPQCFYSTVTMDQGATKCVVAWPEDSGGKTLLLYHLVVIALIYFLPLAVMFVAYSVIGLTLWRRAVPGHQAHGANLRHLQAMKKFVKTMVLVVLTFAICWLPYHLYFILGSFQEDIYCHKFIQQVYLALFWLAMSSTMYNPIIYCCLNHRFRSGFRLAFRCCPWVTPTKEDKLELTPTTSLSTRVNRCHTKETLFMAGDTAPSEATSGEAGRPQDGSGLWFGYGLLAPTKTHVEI
Chain of hERG channel (Q12809 whole entry): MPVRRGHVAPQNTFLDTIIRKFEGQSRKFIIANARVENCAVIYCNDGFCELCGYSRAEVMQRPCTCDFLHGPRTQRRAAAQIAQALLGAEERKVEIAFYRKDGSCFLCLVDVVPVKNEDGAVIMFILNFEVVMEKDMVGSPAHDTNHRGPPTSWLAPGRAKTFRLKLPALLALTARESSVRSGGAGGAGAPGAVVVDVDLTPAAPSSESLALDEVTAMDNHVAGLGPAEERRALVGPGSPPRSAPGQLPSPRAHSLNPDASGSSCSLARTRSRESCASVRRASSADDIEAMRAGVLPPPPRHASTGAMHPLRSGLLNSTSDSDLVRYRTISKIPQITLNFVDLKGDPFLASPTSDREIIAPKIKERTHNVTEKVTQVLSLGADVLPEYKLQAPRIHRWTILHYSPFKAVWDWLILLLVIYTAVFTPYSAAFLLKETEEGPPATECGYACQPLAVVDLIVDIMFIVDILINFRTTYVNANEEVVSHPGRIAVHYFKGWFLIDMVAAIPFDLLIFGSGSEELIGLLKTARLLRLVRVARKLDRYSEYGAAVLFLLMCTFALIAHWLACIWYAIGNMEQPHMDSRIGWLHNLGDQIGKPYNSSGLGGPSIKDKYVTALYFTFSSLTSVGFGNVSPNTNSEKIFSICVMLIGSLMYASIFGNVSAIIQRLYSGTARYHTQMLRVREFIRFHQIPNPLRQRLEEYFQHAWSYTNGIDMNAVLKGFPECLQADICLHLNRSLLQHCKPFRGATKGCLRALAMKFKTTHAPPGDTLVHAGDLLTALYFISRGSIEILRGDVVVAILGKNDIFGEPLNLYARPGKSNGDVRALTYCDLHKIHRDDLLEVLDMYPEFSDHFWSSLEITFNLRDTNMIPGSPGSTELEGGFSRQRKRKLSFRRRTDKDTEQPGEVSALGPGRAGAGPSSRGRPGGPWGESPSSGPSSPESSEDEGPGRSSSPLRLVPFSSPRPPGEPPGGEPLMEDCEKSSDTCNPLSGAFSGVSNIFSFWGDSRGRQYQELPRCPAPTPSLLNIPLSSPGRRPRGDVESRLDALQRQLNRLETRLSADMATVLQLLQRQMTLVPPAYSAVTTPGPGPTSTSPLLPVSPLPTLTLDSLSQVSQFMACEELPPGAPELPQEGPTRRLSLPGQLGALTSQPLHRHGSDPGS

`COc1cccc(C(=O)N2CCn3c(-c4nc(C)ns4)nnc3[C@H]2C)c1` [Compound 27, (R)-(3-methoxyphenyl)(8-methyl-3-(3-methyl-1,2,4-thiadiazol-5-yl)-5,6-dihydro-[1,2,4]triazolo[4,3-a]pyrazin-7(8H)-yl)methanone] showed a Ki (human NK-3 receptor [1]) of 100 nM, a Ki (human NK-1 receptor) greater than 30 µM and an IC50 (human NK-3 receptor [2]) of 220 nM. The “Exposure (% rPPB), bound drug fraction to the plasma protein” value (plasma protein) was 24%, the IC50 (hERG channel) was no less than 70 µM and the Ki (human NK-2 receptor) was greater than 30 µM.
